# Laboratory results as given in paper PMC4291348, “A Continuous Enzyme-Coupled Assay for Triphosphohydrolase Activity of HIV-1 Restriction Factor SAMHD1” (Antimicrobial Agents and Chemotherapy, 2014).
# What was measured:
# [1] = target: T1, SAMHD1 (residues 115 to 626) (Homo sapiens, UniProt Q9Y3Z3); test: Continuous enzyme-coupled (Ppx1 / MDCC-PBP) real-time assay of SAMHD1 triphosphohydrolase activity; type: biochemical; settings: GTP activator 0.2 mM, 25°C
# T1 construct: The catalytic domain of SAMHD1 (residues 115 to 626) was expressed and purified as previously described; made in house
# T1 sequence (Q9Y3Z3 115-626): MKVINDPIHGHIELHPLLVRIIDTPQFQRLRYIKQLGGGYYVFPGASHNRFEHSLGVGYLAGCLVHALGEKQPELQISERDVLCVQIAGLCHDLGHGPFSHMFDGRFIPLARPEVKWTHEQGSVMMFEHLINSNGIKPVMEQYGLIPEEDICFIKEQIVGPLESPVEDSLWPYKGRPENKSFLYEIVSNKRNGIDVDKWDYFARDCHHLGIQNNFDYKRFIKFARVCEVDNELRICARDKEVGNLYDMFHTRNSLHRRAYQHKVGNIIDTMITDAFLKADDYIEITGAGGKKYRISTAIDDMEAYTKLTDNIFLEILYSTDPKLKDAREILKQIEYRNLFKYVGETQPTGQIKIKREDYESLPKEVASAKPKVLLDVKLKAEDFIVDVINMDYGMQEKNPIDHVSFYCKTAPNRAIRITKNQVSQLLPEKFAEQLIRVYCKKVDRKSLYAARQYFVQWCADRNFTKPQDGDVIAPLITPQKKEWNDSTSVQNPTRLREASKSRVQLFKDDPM
# Method: The steady-state kinetics of SAMHD1 were determined by a coupled-enzyme assay using Ppx1 and a fluorescent phosphate biosensor, MDCC-PBP. The reactions were set up in 20-μl volumes in 384-well low-protein-binding microplates (Corning, USA), and the time-dependent fluorescence signal was measured using a Tecan Saffire^2 multiwell plate reader (Männedorf, Switzerland). Solutions containing SAMHD1 (residues 115 to 626), Ppx1, MDCC-PBP, an activator, and an inhibitor (if present) were incubated for 5 min at 25°C before the reaction was initiated by the addition of the substrate. The final concentrations were 100 nM SAMHD1, 10 nM Ppx1, and 40 μM MDCC-PBP. Depending on the experiment, the concentration of the substrate, the activator, or the inhibitor varied while the substrate and/or the activator was held constant at 1 mM and 0.2 mM, respectively. The fluorescence intensity was recorded at 430 nm for excitation and 465 nm for emission wavelengths, with a 7-nm slit width, at 8- to 10-s time intervals over a period of 10 to 30 min. The standard curves were obtained by incubating 40 μM MDCC-PBP with different concentrations of phosphate (Pi) and measuring the fluorescence, as discussed above. The fluorescence response was linear and in the range of 0 to 20 μM Pi.
# The steady-state rates were obtained from the time courses of Pi formation by linear regression of the data points in the linear phase of the reaction. Rates were divided by the SAMHD1 concentration and were plotted versus the activator, substrate, or inhibitor concentration. Apparent dissociation constants for the activator (KA) or the substrate binding (KS) and the catalytic constant (kcat) were determined by nonlinear least-squares fitting using either a hyperbolic or a Hill-function equation in the software package GraFit 7.0.3 (Erithacus Software, United Kingdom) ([22]). […] Data from the three different experiments were analyzed by a least-squares fit using the equation for competitive inhibition. The fits for the three data sets yielded invariant values for the inhibition constants (Ki), supporting a competitive mode of inhibition. All measurements were performed in triplicate in the reaction buffer.
# [2] = tested on: T2, SAMHD1; test: IEX-HPLC assay of SAMHD1 triphosphohydrolase activity; type: biochemical, human; settings: 0.2 mM GTP activated, 1 mM dATP, three enzyme concentrations 2.5, 5, 7.5 µM
# T2 construct: The catalytic domain of SAMHD1 (residues 115 to 626) was expressed and purified as previously described; made in house
# Method: IEX-HPLC assay of SAMHD1 Triphosphohydrolase activity
# In a typical assay 2-10 µM SAMHD1 was incubated with 0.2 mM GTP activator and 1mM dNTP as substrate in Reaction buffer, 20mM Tris-HCl, 150 mM NaCl, 5 mM MgCl2, 2 mM TCEP (pH 7.5). The reaction was allowed to proceed and samples withdrawn at timed intervals up to 5 minutes and terminated by 10 fold dilution into 18.0% acetonitrile, 25mM Tris-HCl, 1 mM EDTA pH 8.0. The nucleotide hydrolysis reactions were analysed by anion exchange HPLC using a DNA-PAC100 (4 x 50mm) column (Dionex). The column was equilibrated at 30°C at 1 mL/min in 25mM Tris-HCl, 0.5% acetonitrile pH 8.0 (Buffer A). […] Absorbance data from the column eluent was continuously monitored between 200-400nm (2 nm interval) using MD-2010 photodiode array detector (JASCO). Peak integration of the absorbance data recorded at 260 nm was used to quantify the amount of substrate and products during at each time point of the reaction. Initial rates of dNTP hydrolysis were determined from the linear part of plots of substrate against time.
# Supplementary Figure S1 - HPLC traces of 0.2 mM GTP activated SAMHD1 hydrolysis of 1 mM dATP. […] Inset, kcat was determined by linear regression of Kapp over three enzyme concentrations, 2.5 µM, 5 µM and 7.5
# µM. Error bars represent the SEM of three independent measurements recorded at each substrate concentration. […]
smiles,measurement,setting,value
Nc1ncnc2c1ncn2[C@H]1C[C@H](O)[C@@H](COP(=O)(O)OP(=O)(O)OP(=O)(O)O)O1 [dATP],"KS, apparent dissociation constant for substrate binding",[1],42.1 ± 6.9 µM
same,kcat,[1],0.94 ± 0.06 s⁻¹
same,kcat,[2],0.99 s⁻¹
